Where a SMILES comes first, the peptide text is derived from it. Where no end group is shown, it is not given here. [ ]: non-standard residue; d: D form. The star is where a group is joined. Desaminotyrosyl = O=C(CCc1ccc(O)cc1)*
System: rat pituitary cells
Assay: not given
Format: cell-based
Conditions: not given
Description: The biological activity of the novel peptides were compared with that of a synthetic standard of the natural sequence of GRF(1-44)-NH2 (SEQ ID NO: 1-NH2) which was isolated from a human pancreatic tumor of an individual suffering from acromegaly (Salk Institute standard hp-GRF-NH2 (NL-A-10)). The assay for biological activity, which is based on the ability to stimulate production of growth hormone in rat pituitary cells in tissue culture, was performed in the following manner. Pituitaries from 30-40 male Sprague-Dawley rats (175 g) were removed aseptically after decapitation. The anterior lobes were collected, washed 3 times in sterile Hepes buffer (0.025M)(pH 7.35) and dispersed at 37° C. in 20-30 ml Hepes buffer (pH 7.35) containing collagenase (4 mg per ml) and Dispase (Protease grande II, 2 mg per ml). After gentle 80 min. vortexing and trituration by Pasteur pipette, the dispersed cells were separated by centrifugation (150×g, 4 min.) and re-suspended in Hepes buffer containing neuraminidase (4 mg/ml), and […] ethylenediaminetetraacetic acid (EDTA) disodium salt pH 7.35, for 10 min. The cells were washed twice with plating medium and plated on multiwell-plates (1.5×10^5 cells per ml) using the following defined medium: F-12/DMEM/BGJ(6:3:1) (Gibco: 430-1700/430-1600/320-2591) with 2 g BSA/L., 2.38 g Hepes/L.,50 mg Gentamycin/L (Schering Co.). The medium in each well was supplemented either with the novel peptide or natural GRF(1-44)-NH2 (SEQ ID NO: 1-NH2) at concentrations ranging from 3.1 to 200 fmol. per ml. of medium. Control wells contained no supplement. Plating was done with this medium added with 2% fetal calf serum to ensure rapid fixation of the cells. On the fourth day the cells were washed twice with the defined medium without fetal calf serum. Finally […] of defined medium was added to each well plus […] of the same medium containing each individual treatment, in triplicate. After 3 hours of incubation the medium was collected and diluted as required to conduct radioimmunoassay (RIA) for rat growth hormone. RIAs were conducted using Sinha's anti-murine GH immune serum and procedures according to the National Pituitary Agency using protein A to precipitate antibody antigen complex.

Row | Molecule | Potency of GRF Analogs Relative to GRF(1-44)-NH2 (SEQ ID NO: 1-NH2)
1 | HVDAIFTQSYRKVLAQLSARKLLQDILSRQQG [SEQ ID NO: 13-OH] | 2.79
2 | HADAIFTQSYRKVLAQLSARKLLQDILSRQQG [SEQ ID NO: 23-OH] | 2.96
3 | CC[C@H](C)[C@H](NC(=O)[C@H](C)NC(=O)[C@H](CC(=O)O)NC(=O)[C@@H](C)NC(=O)CCc1ccc(O)cc1)C(=O)N[C@@H](Cc1ccccc1)C(=O)N[C@H](C(=O)N[C@H](C(=O)N[C@@H](CO)C(=O)N[C@@H](Cc1ccc(O)cc1)C(=O)N[C@@H](CCCNC(=N)N)C(=O)N[C@@H](CCCCN)C(=O)N[C@H](C(=O)N[C@@H](CC(C)C)C(=O)N[C@@H](C)C(=O)N[C@@H](CCC(N)=O)C(=O)N[C@@H](CC(C)C)C(=O)N[C@@H](CO)C(=O)N[C@@H](C)C(=O)N[C@@H](CCCNC(=N)N)C(=O)N[C@@H](CCCCN)C(=O)N[C@@H](CC(C)C)C(=O)N[C@@H](CC(C)C)C(=O)N[C@@H](CCC(N)=O)C(=O)N[C@@H](CC(=O)O)C(=O)N[C@H](C(=O)N[C@@H](CCSC)C(=O)N[C@@H](CO)C(=O)N[C@@H](CCCNC(=N)N)C(N)=O)[C@@H](C)CC)C(C)C)[C@@H](C)O)[C@@H](C)O [SEQ ID NO: 8-NH2] (Desaminotyrosyl-[dA]DAIFTTSYRKVLAQLSARKLLQDIMSR-NH2) | 3.77
4 | CC[C@H](C)[C@H](NC(=O)[C@H](C)NC(=O)[C@H](CC(=O)O)NC(=O)[C@@H](C)NC(=O)CCc1ccc(O)cc1)C(=O)N[C@@H](Cc1ccccc1)C(=O)N[C@H](C(=O)N[C@@H](CCC(N)=O)C(=O)N[C@@H](CO)C(=O)N[C@@H](Cc1ccc(O)cc1)C(=O)N[C@@H](CCCNC(=N)N)C(=O)N[C@@H](CCCCN)C(=O)N[C@H](C(=O)N[C@@H](CC(C)C)C(=O)N[C@@H](C)C(=O)N[C@@H](CCC(N)=O)C(=O)N[C@@H](CC(C)C)C(=O)N[C@@H](CO)C(=O)N[C@@H](C)C(=O)N[C@@H](CCCNC(=N)N)C(=O)N[C@@H](CCCCN)C(=O)N[C@@H](CC(C)C)C(=O)N[C@@H](CC(C)C)C(=O)N[C@@H](CCC(N)=O)C(=O)N[C@@H](CC(=O)O)C(=O)N[C@H](C(=O)N[C@@H](CC(C)C)C(=O)N[C@@H](CO)C(=O)N[C@@H](CCCNC(=N)N)C(=O)N[C@@H](CCC(N)=O)C(=O)N[C@@H](CCC(N)=O)C(=O)NCC(=O)O)[C@@H](C)CC)C(C)C)[C@@H](C)O [SEQ ID NO: 31-OH] (Desaminotyrosyl-[dA]DAIFTQSYRKVLAQLSARKLLQDILSRQQG-OH) | 4.20
5 | HVDAIFTQSYRKVLAQLSARKLLQDILNRQQG [SEQ ID NO: 14-OH] | 3.11

System: not listed separately
Assay: Half-life stability of GRF analogs in aqueous solution by reverse phase HPLC
Format: physicochemical
Conditions: aqueous buffer pH 7.40 (0.25M Na2HPO4/H3PO4, 1.0 mM NaN3), 37° C., 0.15 mg/mL
Description: Half-life stability of GRF analogs in aqueous solution was determined by reverse phase HPLC at 37° C. GRF analogs were prepared as described above. GRF analogs were dissolved in […] of H2 O and then taken up in 1.0 mL of buffer solution (pH 7.40) containing 0.25M Na2 HPO4 /H3 PO4 and 1.0 mM NaN3. The concentration of the GRF analogs was 0.15 mg/mL. The HPLC system was a Laboratory Data Control (LDC) HPLC with a Waters C-18 column (3.9×300 mm, 10μ). The detector was a LDC Spectromonitor III and the gradient delivery system was a Constametric II. Mobile phase--(A) 0.025% TFA in H2 O, (B) 0.025% TFA in acetonitrile. Gradient was 0-37% (B) in 15 minutes for SEQ ID NO: 8-NH2 where Xaa^1 is desNH2 Tyr and Xaa^2 is D-Ala and SEQ ID NO: 9-NH2 where Xaa^1 is desNH2 Tyr and Xaa^2 is D-Ala; 0-35% (B) in 15 minutes for SEQ ID NO: 35-NH2 where Xaa^1 is desNH2 Tyr and Xaa^2 is D-Ala; and 0-36% (B) in 15 minutes for SEQ ID NO: 10-NH2 where Xaa^1 is desNH2 Tyr and Xaa^2 is D-Ala. Flow rate for all gradients was 2 ml/minute. Detection was at 206 nm using a UV detector.

Row | Molecule | HALF-LIFE t(1/2) [h]
6 | CC[C@H](C)[C@H](NC(=O)[C@H](C)NC(=O)[C@H](CC(=O)O)NC(=O)[C@@H](C)NC(=O)CCc1ccc(O)cc1)C(=O)N[C@@H](Cc1ccccc1)C(=O)N[C@H](C(=O)N[C@H](C(=O)N[C@@H](CO)C(=O)N[C@@H](Cc1ccc(O)cc1)C(=O)N[C@@H](CCCNC(=N)N)C(=O)N[C@@H](CCCCN)C(=O)N[C@H](C(=O)N[C@@H](CC(C)C)C(=O)N[C@@H](C)C(=O)N[C@@H](CCC(N)=O)C(=O)N[C@@H](CC(C)C)C(=O)N[C@@H](CO)C(=O)N[C@@H](C)C(=O)N[C@@H](CCCNC(=N)N)C(=O)N[C@@H](CCCCN)C(=O)N[C@@H](CC(C)C)C(=O)N[C@@H](CC(C)C)C(=O)N[C@@H](CCC(N)=O)C(=O)N[C@@H](CC(=O)O)C(=O)N[C@H](C(=O)N[C@@H](CCSC)C(=O)N[C@@H](CO)C(=O)N[C@@H](CCCNC(=N)N)C(N)=O)[C@@H](C)CC)C(C)C)[C@@H](C)O)[C@@H](C)O [SEQ ID NO: 8-NH2] (Desaminotyrosyl-[dA]DAIFTTSYRKVLAQLSARKLLQDIMSR-NH2) | 169
